pIC50: −log10 of the molar value.
Tests used:
Type in all cases: functional
[1] = species on record: Cavia porcellus; assay: In vitro NO ([…]) release by nitrite quanititation using Griess reaction in presence of N-acetyl-cysteamine
[2] = species on record: Cavia porcellus; assay: In vitro NO ([…]) release by nitrite quanititation using Griess reaction without N-acetyl-cysteamine
[3] = species on record: Cavia porcellus; assay: In vitro calcium channel modulating activity in guinea pig left atrium (GPLA); settings: Cardiac atrium
[4] = species on record: Cavia porcellus; assay: In vitro NO ([…]) release by nitrite quanititation using Griess reaction

pIC50 [3]	Structure (SMILES)	% of NO release [1]	% of NO release [2]	% of NO release [4]
–	O=[N+]([O-])OCC(CO[N+](=O)[O-])O[N+](=O)[O-] [NITROGLYCERIN]	5.3	0.18	–
4.80	CC1=NC(C)=C([N+](=O)[O-])[C@H](c2ccccc2C(F)(F)F)/C1=C(\O)OCCO[N+](=O)[O-]	–	–	2.7
–	CC1=NC(C)=C([N+](=O)[O-])[C@@H](c2ccccc2C(F)(F)F)/C1=C(\O)OCCO[N+](=O)[O-]	–	–	1.09
